Patent US20110020239A1, “METHODS FOR IN VIVO IMAGING OF CELLS” (The Johns Hopkins University, priority 2007, published 2011)

Assays:
human islets [1] = assay: Microfluorometric viability assay (Newport Green / propidium iodide) of labeled islets; format: cell-based
Protocol: Fresh human cadaveric islets were provided by the Joslin Diabetes Research Center (Boston, Mass.) under an approved protocol of the National Islet Cell Resource Program. Islets were cultured in RPMI 1640 medium (Gibco), supplemented with 10% fetal calf serum and 1% penicillin/streptomycin/L-glutamine (all reagents from Sigma Co) in a humidified CO2 incubator at 37° C. and a 5% CO2 atmosphere. Islets were cultured in tissue culture plates and culture media was replaced every 3 days. For all Feridex labeled islets, islets were initially labeled with procedure described below and then were cultured in contrast free medium. In the case of PFC labeled islets, the respective PFC was supplemented to each change of culture medium throughout the entire culture period.
Viability of labeled human islets was determined using a microfluorometric assay. Cells were incubated for 30 minutes with […] Newport Green (NG, Sigma, St. Louis, Mo.), which stains viable cell cytoplasm green. Following NG staining, islets were incubated for 10 minutes with 5 mM propidium iodide (PI, Sigma, St. Louis, Mo.), which emits red fluorescence when bound to nucleic acids. NG was excited by using a 500 nm laser line and emitted fluorescence was detected using a 535 nm long-pass filter. PI was excited by using a 514 nm laser line and emitted fluorescence was detected using a 550 nm long-pass filter. NG stained cells (green) were counted as viable, while PI stained cells (red) were counted as dead. In cases of dual staining, the cells were considered dead.

[2] = 19F NMR of PFCs (aqueous solubility); format: physicochemical; details: 19F NMR experiments
Text: In the ^19F NMR spectrum of PFOB, eight resonance peaks are observable, one for each carbon position.

human islets [3] = assay: Insulin secretion assay (static incubation, C-peptide ELISA); format: cell-based; parameters: glucose responsiveness stimulation index: dose or concentration left out as unconfirmed; details: for difference in glucose responsiveness stimulation index between PFOB and PFPE: PFOB vs PFPE, p>0.05; for glucose responsiveness stimulation index: increase of insulin secretion
Protocol: A static incubation assay was used to assess the insulin secretion response of labeled human islets. One hundred islets were placed in a culture insert (membrane pore diameter 12 μm; Millicell PCF) in six-well plates. The insulin secretion was measured after 1.5 hrs in a solution of a specific glucose level. […] Aliquots of the medium were stored at −80° C. The C-peptide content of the samples was determined with an enzyme-linked, immunosorbent assay (ultrasensitive human c-peptide ELISA, Alpco Diagnostics); results (in ng/ml) were expressed as the means of three independent experiments. The C-peptide secretion was also assessed at 7 days and at 14 days following islet encapsulation, using 8 mM glucose and 90 min incubation.

dendritic cells = details: Ahrens, Flores et al. 2005; cited from earlier work

With FC(F)(F)C(F)(F)C(F)(F)C(F)(F)C(F)(F)C(F)(F)C(F)(F)C(F)(F)Br [PFOB, perfluorooctylbromide] the “islet viability compared to both Feridex labeled and unlabeled islets” value (human islets [1]) was “significant increase in viability”, the “percentage survival of labeled islets compared to unlabeled control islets” value (human islets [1]; all days / all time points (days 1, 7, 14)) was “statistically significant increase” and the aqueous solubility [2] was “below the limit of detection”. The “difference in glucose responsiveness stimulation index between PFOB and PFPE” value (human islets [3]) was “no significant statistical difference”, the “glucose responsiveness stimulation index” value (human islets [3]) was 2.19 and the “glucose responsiveness of labeled vs unlabeled islets” value (human islets [3]; insulin secretion assays) was “no significant difference”.

For FC1(F)OC(F)(F)C(F)(F)OC(F)(F)C(F)(F)OC(F)(F)C(F)(F)OC(F)(F)C(F)(F)OC1(F)F [PFPE, perfluoro-15-crown-5 ether], the “percentage survival of labeled islets compared to unlabeled control islets” value (human islets [1]; days 7 and 14, p<0.05) is listed as “significant statistical differences”, the “effect on dendritic cell proliferation, function, or maturation” value (dendritic cells) is listed as “no effect” and the “difference in glucose responsiveness stimulation index between PFOB and PFPE” value (human islets [3]) is listed as “no significant statistical difference”. For the same compound, the “glucose responsiveness stimulation index” value (human islets [3]) was 2.07.
